Results from publication PMC3939009, “Thrombin inhibitory activity of some polyphenolic compounds” (Medicinal Chemistry Research, 2013).
pIC50, pKd: −log10 of the molar value. Where two headings read alike, the source gives them in different places.

How the values were obtained:
human thrombin [1] = assay: Thrombin-induced platelet aggregation (turbidimetric); format: cell-based; details: for Effect on thrombin ability to stimulate platelet aggregation: compound preincubated with thrombin
Protocol: Blood samples in 0.32 % sodium citrate from healthy volunteers without cardiovascular disorders were collected, untreated with antiplatelet drugs. […] Platelets were isolated from PRP using BSA–Sepharose 2B gel filtration method according to Walkowiak et al. ([2000]). […] In these preparations, to nine volumes of thrombin one volume of polyphenolic compounds was added (final thrombin concentration was 15.8 nM). All tested compounds were dissolved in 50 % DMSO to the initial concentration of 10 mM; other solutions of compounds were also prepared in 50 % DMSO (prepared in 50 mM TBS, pH 7.4). […] The platelet aggregation was measured by turbidimetric method (Saluk-Juszczak et al., [2007]) using dual-channel Chrono-log optical aggregometer (Chronolog, USA). […] Platelet suspensions were pre-warmed at 37 °C with stirring.

human thrombin [2] = target: T1, human thrombin (Homo sapiens, UniProt P00734); assay: Analysis of thrombin inhibition parameters (Lineweaver–Burk curves); format: biochemical; design: Thrombin, also known as an active plasma coagulation factor II; purchased Sigma-Aldrich Chemical Co. (St. Louis, MO, USA) T7009; details: for k cat: compound at IC50 concentration, k cat = V max/E 0, control 29.1; for Type of inhibition: from Lineweaver–Burk curves; for V max of chromogenic substrate hydrolysis by thrombin / K m of chromogenic substrate hydrolysis by thrombin: thrombin incubated with compound at IC50 concentration; for V max of chromogenic substrate hydrolysis by thrombin: control 30.7; for K m of chromogenic substrate hydrolysis by thrombin: control 158.7
Protocol: Absorbance was monitored every 12 s for 10 min in a 96-well microplate reader. The velocity of reaction was expressed as the increase in product (pNA) over time (∆ μmol/min) using a computer program Mikcroplate Manager® 8 and the extinction coefficient of p-nitroaniline. […] Then, the Lineweaver–Burk ([1934]) curves for thrombin in the presence and in the absence of polyphenol compounds were plotted. The Lineweaver–Burk equation, which is a transformation of the Michaelis–Menten model, looks as follows: 1/V=Km/Vmax·1/[S]+1/Vmax

human thrombin [3] = target: T1, human thrombin; assay: SDS-PAGE analysis of thrombin-induced cross-linked fibrin formation; format: biochemical; design: Thrombin, also known as an active plasma coagulation factor II; purchased Sigma-Aldrich Chemical Co. (St. Louis, MO, USA) T7009; host or cells: purified from human plasma; details: for Changes in electrophoresis of fibrinogen treated with preincubated thrombin: cyanin 75 and 750 μM, (+)-catechin 125 and 1,000 μM, (−)-epicatechin 150 and 1,000 μM
Protocol: (§1) In these preparations, to nine volumes of thrombin one volume of polyphenolic compounds was added (final thrombin concentration was 15.8 nM). All tested compounds were dissolved in 50 % DMSO to the initial concentration of 10 mM; other solutions of compounds were also prepared in 50 % DMSO (prepared in 50 mM TBS, pH 7.4). The final concentration of DMSO in thrombin samples was 5 %. To prepare thrombin control samples, the same volume of solvent (50 % DMSO prepared in 50 mM TBS, pH 7.4) was added as in the case of the compound volume and warmed for 10 min to 37 °C.
The reactions incubated at 37 °C were stopped after 5, 15 and 30 min by adding 150 μl of lysis buffer (0.125 M Tris/HCl, 4 % SDS, 8 M urea, 10 % β-mercaptoethanol, pH 6.8). Samples were subjected to SDS-PAGE (polyacrylamide concentration—7.5 %) using Mini-Protean Electrophoresis Cell (Bio-Rad, Hercules, CA). Proteins were stained with Coomassie Brilliant Blue R250 (CBB).

human thrombin [4] = target: T1, human thrombin; assay: Thrombin-induced fibrinogen polymerization; format: biochemical; design: Thrombin, also known as an active plasma coagulation factor II; purchased Sigma-Aldrich Chemical Co. (St. Louis, MO, USA) T7009; details: thrombin preincubated with compound; for Effect on thrombin ability to induce fibrinogen polymerization: 10 min 37 °C; for Concentration causing total inhibition of thrombin activity (fibrin polymerization): Vmax of fibrinogen polymerization at 595 nm
Protocol: In these preparations, to nine volumes of thrombin one volume of polyphenolic compounds was added (final thrombin concentration was 15.8 nM). All tested compounds were dissolved in 50 % DMSO to the initial concentration of 10 mM; other solutions of compounds were also prepared in 50 % DMSO (prepared in 50 mM TBS, pH 7.4). […] Polymerization of fibrin was monitored at 595 nm using a 96-well microtiter plate reader. To each reaction well of the microtiter plate, 100 μl of fibrinogen (3 mg/ml) in 50 mM TBS and 5 mM CaCl2, pH 7.4, were added. […] The maximal velocity of the polymerization process (V max, Δm OD/min) for each absorbance curve was determined (Nowak et al., [2007]).

human thrombin [5] = target: T1, human thrombin; assay: Amidolytic activity of thrombin (hydrolysis of chromogenic substrate D-Phe-Pip-Arg-pNA); format: biochemical; design: Thrombin, also known as an active plasma coagulation factor II; purchased Sigma-Aldrich Chemical Co. (St. Louis, MO, USA) T7009; host or cells: purified from human plasma; details: at 375 μM substrate concentration; compounds 0.1–1,000 μM, preincubation 10 min 37 °C; read-out: IC50, amidolytic activity of human thrombin
Protocol: as §1, with “All” for “In these preparations, to nine volumes of thrombin one volume of polyphenolic compounds was added (final thrombin concentration was 15.8 nM). All”
To each reaction well, 40 μl of 3 mM chromogenic substrate was added. To initiate the chromogenic reaction, 280 μl of control thrombin (without tested compounds) or thrombin after preincubation with a polyphenolic compound to every reaction well in the same moment was added. The absorbance value was monitored every 12 s for 10 min. The maximal velocity of the reaction (V max, Δm OD/min) for each absorbance curve was determined. IC50 value (parameter) for every polyphenolic compound from inhibition curves was estimated.

human thrombin [6] = target: T1, human thrombin; assay: BIAcore (SPR) analysis of binding to immobilized thrombin; design: Thrombin, also known as an active plasma coagulation factor II; purchased Sigma-Aldrich Chemical Co. (St. Louis, MO, USA) T7009; details: for pKd: read-out: K D, equilibrium dissociation constant; for kon: read-out: k a, association rate; for koff: read-out: k d, dissociation rate; for Response (RU): analyte 1,000 μM, thrombin immobilized on CM5 chip
Protocol: The biosensor assays were performed using the BIAcore 1000 biosensor system. All biosensor analyses were performed with a phosphate-buffered saline (PBS), pH 7.4, as a running buffer. […] The immobilization of thrombin on a biosensor carboxylmethyl dextran surface was performed according to the BIA applications Handbook (BIAcore, [1994]). The process of protein immobilization was performed on a sensor chip CM5 surface by the positively charged functional groups of protein amino acids. The immobilization process consisted of four steps: preconcentration, activation, ligand immobilization and deactivation of the residual NHS esters. […] The temperature during the whole experiment was also constant and was set to 25.0 °C. […] Each of these solutions (10 μl) was injected into an empty sensor chip channel. […] The amount of injected activation mixture was modified, to regulate the amount of immobilized ligand. […] The conditions of the latter experiments were established by numerous pre-tests. The assessed parameters included: the buffer flow rate, the volume of analyte injection, the concentration of analytes, types and concentration of regenerators. […] For each injection of analyte solution, the volume used was 100 μl. After injection of analyte was completed, the dissociation step occurred and the level of the interaction ligand-analyte was measured. During dissociation, the particles non-covalently bound to the ligand were washed out from the working channel. […] To do these calculations, the formulas presented below were used: the association rate […]]; the dissociation rate -d[AB]/dt=kd·[AB]; the equilibrium constants: KA=[AB]/[A]·[B]=ka/kd KD=[A]·[B]/[AB]=kd/ka.

[7] = ten times IC50: cyanidin […], quercetin 15 μM, silybin 250 μM

Compound	Platelet aggregation, % of control (human thrombin [1]; compound 1,000 μM preincubated with thrombin) [%]	k cat (human thrombin [2]) [s⁻¹]	Type of inhibition (human thrombin [2])	V max of chromogenic substrate hydrolysis by thrombin (human thrombin [2])	K m of chromogenic substrate hydrolysis by thrombin (human thrombin [2])	Effect on formation of γ–γ chains and α-polymers (human thrombin [3]; [7])	Effect on thrombin ability to induce fibrinogen polymerization (human thrombin [4])	Concentration causing total inhibition of thrombin activity (fibrin polymerization) (human thrombin [4])	pIC50 (human thrombin [5])	K A, equilibrium association constant (human thrombin [6]; 5 sensorgrams, 50 to 1,000 μM) [M⁻¹]	pKd (human thrombin [6]; 5 sensorgrams, 50 to 1,000 μM)	kon (human thrombin [6]; 5 sensorgrams, 50 to 1,000 μM) [M⁻¹ s⁻¹]	koff (human thrombin [6]; 5 sensorgrams, 50 to 1,000 μM) [s⁻¹]	Response (RU) (human thrombin [6])	Effect on thrombin ability to stimulate platelet aggregation (human thrombin [1])	Changes in electrophoresis of fibrinogen treated with preincubated thrombin (human thrombin [3])	K A, equilibrium association constant (human thrombin [6]) [M^–1]	Platelet aggregation, % of control (human thrombin [1]; compound 5 μM preincubated with thrombin) [%]	Effect on formation of γ–γ chains and α-polymers (human thrombin [3]; at IC50 concentration of amidolytic inhibition: cyanidin […], quercetin 1.5 μM)
COc1cc(C2Oc3cc([C@H]4Oc5cc(O)cc(O)c5C(=O)[C@@H]4O)ccc3OC2CO)ccc1O (stereo in doubt) [Silybin, silybin]	43	25.6	competitive inhibitors	27 10^−6 mol/min	550.5 10^−6 M	slightly reduced the formation of γ–γ chains and α-polymers	inhibition of thrombin ability to induce fibrinogen polymerization	> 1,000 μM	4.60	53900	4.73	7.11	0.000132	1,424 RU					
Oc1cc(O)c2c(c1)O[C@H](c1ccc(O)c(O)c1)[C@@H](O)C2 [(+)-Catechin, (+)-catechin]		29.5	competitive inhibitors	31.2 10^−6 mol/min	700.1 10^−6 M		inhibitory effect of polymerization of human fibrinogen was not observed		3.90	20300	4.31	3.62	0.000178	717 RU	no effect on thrombin ability to stimulate platelets aggregation	no changes were observed			
Oc1cc(O)c2c(c1)O[C@H](c1ccc(O)c(O)c1)[C@H](O)C2 [(−)-Epicatechin, (−)-epicatechin]		27.8	competitive inhibitors	29.4 10^−6 mol/min	481.5 10^−6 M		inhibitory effect of polymerization of human fibrinogen was not observed		3.82	192	2.28	4.37	0.0227	431 RU	no effect on thrombin ability to stimulate platelets aggregation	no changes were observed	192		
Oc1cc(O)c2cc(O)c(-c3ccc(O)c(O)c3)[o+]c2c1 [Cyanidin, cyanidin]		28.7	competitive inhibitors	30.3 10^−6 mol/min	600.6 10^−6 M	significantly inhibited the formation of γ–γ chains and α-polymers	inhibition of thrombin ability to induce fibrinogen polymerization	5 µM						2,251 RU				10	also inhibited the formation of γ–γ chains and α-polymers
OC[C@H]1O[C@@H](Oc2cc3c(O[C@@H]4O[C@H](CO)[C@@H](O)[C@H](O)[C@H]4O)cc(O)cc3[o+]c2-c2ccc(O)c(O)c2)[C@H](O)[C@@H](O)[C@@H]1O [Cyanin, cyanin]		19.7	mixed type of inhibition	20.8 10^−6 mol/min	344.6 10^−6 M		inhibitory effect of polymerization of human fibrinogen was not observed		4.12	115	2.06	0.95	0.00824	827 RU	no effect on thrombin ability to stimulate platelets aggregation	no changes were observed	115		
